From patent publication US20200261484A1, “INHIBITION OF AUTISM SPECTRUM DISORDER USING RIBOSOMAL READ-THROUGH COMPOUNDS” (Friedrich Miescher Inst. for Biomedical Research, priority 2017, published 2020)

System: Adnp-PTC718 expressing cells
Experiment: Streptavidin purification and LC-MS/MS of FLAG/Avi-tagged Adnp-PTC718 from cells with and without aminoglycoside treatment (stop codon read-through, ChAHP complex formation)
Type: cell-based, mouse
Details: Adnp-PTC718 expressing cells treated with 2 mg/ml gentamycin (2.9 mM) or paromomycin (3.2 mM) for 24 hours; LC-MS/MS of streptavidin-purified Adnp-PTC718
Experimental: FLAG/Avi-tagged Adnp-PTC718 was streptavidin purified from cells with and without aminoglycoside treatment and subjected to LC-MS/MS analysis. Adnp-PTC718 expressing cells were treated with 2 mg/ml gentamycin (2.9 mM) or paromomycin (3.2 mM) for 24 hours. The table depicts total spectral counts, unique peptides and percent sequence coverage for all ChAHP components from the different treatments.
Cells were grown to confluency on 10 cm dish, collected in PBS, and pelleted by 2 min centrifugation at 400 g. All subsequent steps were performed on ice or at 4 C. Pellets were resuspended in 3 ml of Nuclear extract buffer 1 (NEB1: 20 mM HEPES, 10 mM KCl, 1 mM EDTA, 0.1 mM Na3VO4, 0.2% NP-40, 10% glycerol, 1 mM DTT, 1×PIC) followed by centrifugation at 1000 g for 3 min. […] Protein concentration was determined using Bradford assay, and approximately 250 µg of nuclear extracts were used per affinity purification. […] The generated peptides were acidified with TFA to a final concentration of 0.8% and analyzed by capillary liquid chromatography tandem mass spectrometry with an EASY-nLC 1000 using the two-column set-up (Thermo Scientific). […] Protein identification and relative quantification of the proteins was done with MaxQuant version 1.5.3.8 using Andromeda as search engine^33 and label free quantification (LFQ.^34) as described in^35. […]

Compound | formation of the ChAHP complex (stop codon read-through)
NC[C@@H]1O[C@H](O[C@H]2[C@@H](O)[C@H](O[C@@H]3[C@@H](O)[C@H](N)C[C@H](N)[C@H]3O[C@H]3O[C@H](CO)[C@@H](O)[C@H](O)[C@H]3N)O[C@@H]2CO)[C@H](N)[C@@H](O)[C@@H]1O [paromomycin] | restore the formation of the ChAHP complex
gentamycin | restore the formation of the ChAHP complex
